Assay results reported in ChEMBL document CHEMBL6087398, “Natural phenol carbamates: Selective BuChE/FAAH dual inhibitors show neuroprotection in an Alzheimer's disease mouse model” (Eur J Med Chem, 2025).
Activity calls are given as the source filed them. No cut-off for these calls is given here.

Tests used:
[1] = molecular target: T1, Cholinesterase (Homo sapiens, UniProt P06276); assay: Binding affinity to human BuChE (unknown origin) assessed as carbamolyation rate at 100 to 1000 nM incubated for 60 mins; details: dose 100-1000 nM
[2] = Toxicity in amyloid beta (1 to 42 residues) induced ICR male mouse model assessed as effect on body weight at 10 mg/kg, po administered for 12 days and measured daily; assay type: organism-based; details: in vivo, 288 h, time 12 day
[3] = test system: BV-2; assay: Induction of microglial polarization to M2 phenotype in mouse BV-2 cells assessed as increase in Arg-1 activity incubated for 24 hrs by Western blotting analysis; assay type: functional, cell-based
[4] = test system: L02; assay: Cytotoxicity against human L02 cells assessed as reduction in cell viability at 6.25 to 50 uM incubated for 24 hrs by MTT assay relative to control; assay type: toxicity, cell-based; details: l02, 24 h, dose 6.25-50 µM
[5] = Neurotoxicity against mouse BV-2 cells assessed as reduction in cell viability at 25 to 50 uM incubated for 24 hrs by MTT assay; assay type: toxicity, cell-based; details: bv-2, 24 h, dose 25-50 µM
[6] = in vitro; details: PAMPA, pH 7.4
Description: Permeability of the compound in PBS at pH 7.4 incubated for 18 hrs by PAMPA-BBB assay

[7] = Toxicity in amyloid beta (1 to 42 residues) induced ICR male mouse model assessed as hepatocyte fatty degeneration at 10 mg/kg, po administered for 12 days and measured on day 15 by H and E staining based immunohistochemistry analysis; assay type: organism-based; details: in vivo, 288 h, time 12 day
[8] = test system: PC-12; assay: Neuroprotective activity against H2O2 induced rat PC12 cells assessed as increase in cell viability at 50 uM measured after 24 hrs by MTT assay relative to control; assay type: functional
[9] = test system: Mus musculus; assay: Antialzheimer activity against amyloid beta (1 to 42 residues) induced ICR male mouse model assessed as prevention in cognitive dysfunction at 10 mg/kg, po administered for 12 days by Morris water maze test; assay type: functional, organism-based; details: time 12.0 day
[10] = test system: L02; assay: Cytotoxicity against human L02 cells assessed as reduction in cell viability at 12.5 uM incubated for 24 hrs by MTT assay; assay type: toxicity, cell-based; details: l02, 24 h
[11] = molecular target: Acetylcholinesterase (Homo sapiens) (UniProt P22303); assay: Inhibition of recombinant human AChE using acetylthiocholine iodide as substrate incubated for 5 mins relative to control
[12] = molecular target: T1, Cholinesterase; assay: Binding affinity to human BuChE (unknown origin) assessed as overall carbamolyation rate at 100 to 1000 nM incubated for 60 mins
[13] = test system: PC-12; assay: Neuroprotective activity against H2O2 induced rat PC12 cells assessed as cell viability measured after 24 hrs by MTT assay; assay type: functional, cell-based; details: dose 6.25-50 µM
[14] = Neurotoxicity against mouse BV-2 cells assessed as improvement in cell morphological changes at 20 uM by inverted microscopic analysis; assay type: toxicity, cell-based; details: bv-2, 20 µM
[15] = Toxicity in amyloid beta (1 to 42 residues) induced ICR male mouse model assessed as pericentral necrosis at 10 mg/kg, po administered for 12 days and measured on day 15 by H and E staining based immunohistochemistry analysis; assay type: organism-based; details: in vivo, 288 h, time 12 day
[16] = molecular target: T1, Cholinesterase; assay: Inhibition of human BuChE using butyrylthiocholine iodide as substrate incubated for 5 mins
[17] = molecular target: T2, Fatty-acid amide hydrolase 1 (Homo sapiens, UniProt O00519); assay: Inhibition of human FAAH using arachidonoyl amide as substrate incubated for 30 mins by fluorescence-based cayman assay
T2 sequence (O00519 whole entry): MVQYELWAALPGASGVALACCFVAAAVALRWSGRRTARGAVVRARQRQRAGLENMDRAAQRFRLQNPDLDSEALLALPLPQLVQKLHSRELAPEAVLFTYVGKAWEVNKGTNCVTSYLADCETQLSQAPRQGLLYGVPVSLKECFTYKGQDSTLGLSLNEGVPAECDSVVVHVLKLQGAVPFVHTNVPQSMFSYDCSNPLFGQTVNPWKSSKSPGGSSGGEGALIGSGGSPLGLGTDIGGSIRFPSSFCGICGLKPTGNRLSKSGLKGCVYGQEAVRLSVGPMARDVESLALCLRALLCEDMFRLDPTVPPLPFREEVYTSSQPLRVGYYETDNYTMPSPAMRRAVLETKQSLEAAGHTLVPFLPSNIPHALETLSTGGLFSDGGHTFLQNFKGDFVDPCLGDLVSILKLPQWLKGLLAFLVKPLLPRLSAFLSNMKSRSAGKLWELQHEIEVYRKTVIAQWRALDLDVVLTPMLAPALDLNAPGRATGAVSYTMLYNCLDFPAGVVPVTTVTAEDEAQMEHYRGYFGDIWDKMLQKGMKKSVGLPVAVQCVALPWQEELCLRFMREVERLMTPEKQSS

[18] = test system: BV-2; assay: Immunomodulatory activity in mouse BV-2 cells assessed as decrease in LPS induced IL-1 beta release at 10 uM incubated for 24 hrs by Western blotting analysis; assay type: functional, cell-based
[19] = test system: BV-2; assay: Induction of microglial polarization to M2 phenotype in mouse BV-2 cells assessed as increase in Arg-1 expression incubated for 24 hrs by Western blotting analysis; assay type: functional, cell-based; details: dose 0-10 µM
[20] = molecular target: T1, Cholinesterase; assay: Binding affinity to human BuChE (unknown origin) assessed as equilibrium dissociation constant at 100 to 1000 nM incubated for 60 mins
[21] = test system: Mus musculus; assay: Antialzheimer activity against amyloid beta (1 to 42 residues) induced ICR male mouse model assessed as reduction in amyloid beta (1 to 42 residues) at 10 mg/kg, po administered for 12 days by ELISA relative to control; assay type: functional; design: scale not given: the % may be the effect or the level left; details: time 12 day
[22] = molecular target: Cholinesterase (Equus caballus, UniProt P81908); assay: Inhibition of equine BuChE using butyrylthiocholine iodide as substrate preincubated with enzyme for 20 mins followed by substrate addition and measured after 20 mins by Ellman's method
[23] = molecular target: T1, Cholinesterase; assay: Binding affinity to human BuChE (unknown origin) assessed as decarbamolyation rate at 100 to 1000 nM incubated for 60 mins; details: dose 100-1000 nM
[24] = test system: BV-2; assay: Immunomodulatory activity in mouse BV-2 cells assessed as decrease in LPS induced IL-1 beta release incubated for 24 hrs by Western blotting analysis; assay type: functional, cell-based; details: dose 0-10 µM
[25] = test system: BV-2; assay: Induction of microglial polarization to M2 phenotype in mouse BV-2 cells assessed as reduction in iNOS activity incubated for 24 hrs by Western blotting analysis; assay type: functional, cell-based
[26] = test system: BV-2; assay: Immunomodulatory activity in mouse BV-2 cells assessed as decrease in LPS induced iNOS expression at 10 uM incubated for 24 hrs by Western blotting analysis; assay type: functional, cell-based
[27] = test system: BV-2; assay: Induction of microglial polarization to M2 phenotype in mouse BV-2 cells assessed as increase in CD206 expression incubated for 24 hrs by Western blotting analysis; assay type: functional, cell-based; details: dose 0-10 µM
[28] = molecular target: Acetylcholinesterase (Electrophorus electricus) (UniProt O42275); assay: Inhibition of electric eel AChE using acetylthiocholine iodide as substrate preincubated with enzyme for 20 mins followed by substrate addition and measured after 20 mins by Ellman's method; design: concentration or dose not given beside the values; details: time 40.0 min
[29] = test system: Mus musculus; assay: Antialzheimer activity against amyloid beta (1 to 42 residues) induced ICR male mouse model assessed as increase in neuron density in hippocampal CA1 region at 10 mg/kg, po administered for 12 days and measured on day 15 by H and E staining based analysis; assay type: functional, organism-based; details: time 12.0 day
[30] = molecular target: T2, Fatty-acid amide hydrolase 1; assay: Inhibition of human FAAH

T1 sequence (P06276 whole entry, the tested form may be a part): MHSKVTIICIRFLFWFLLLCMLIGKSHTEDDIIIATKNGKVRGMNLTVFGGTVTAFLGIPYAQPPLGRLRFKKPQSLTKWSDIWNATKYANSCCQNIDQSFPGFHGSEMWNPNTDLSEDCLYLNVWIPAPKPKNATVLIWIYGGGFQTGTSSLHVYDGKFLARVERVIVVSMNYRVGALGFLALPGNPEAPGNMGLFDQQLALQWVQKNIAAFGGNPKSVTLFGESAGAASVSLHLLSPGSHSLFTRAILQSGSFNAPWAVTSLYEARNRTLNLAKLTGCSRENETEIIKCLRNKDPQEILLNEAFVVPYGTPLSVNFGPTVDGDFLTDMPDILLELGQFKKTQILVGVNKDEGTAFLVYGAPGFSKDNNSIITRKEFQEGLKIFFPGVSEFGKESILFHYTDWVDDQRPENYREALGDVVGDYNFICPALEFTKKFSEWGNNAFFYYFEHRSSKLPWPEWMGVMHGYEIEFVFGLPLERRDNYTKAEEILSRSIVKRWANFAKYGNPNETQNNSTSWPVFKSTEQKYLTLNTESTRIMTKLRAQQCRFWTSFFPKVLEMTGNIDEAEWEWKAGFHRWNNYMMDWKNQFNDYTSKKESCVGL
Chain of Acetylcholinesterase (Homo sapiens) (P22303 whole entry): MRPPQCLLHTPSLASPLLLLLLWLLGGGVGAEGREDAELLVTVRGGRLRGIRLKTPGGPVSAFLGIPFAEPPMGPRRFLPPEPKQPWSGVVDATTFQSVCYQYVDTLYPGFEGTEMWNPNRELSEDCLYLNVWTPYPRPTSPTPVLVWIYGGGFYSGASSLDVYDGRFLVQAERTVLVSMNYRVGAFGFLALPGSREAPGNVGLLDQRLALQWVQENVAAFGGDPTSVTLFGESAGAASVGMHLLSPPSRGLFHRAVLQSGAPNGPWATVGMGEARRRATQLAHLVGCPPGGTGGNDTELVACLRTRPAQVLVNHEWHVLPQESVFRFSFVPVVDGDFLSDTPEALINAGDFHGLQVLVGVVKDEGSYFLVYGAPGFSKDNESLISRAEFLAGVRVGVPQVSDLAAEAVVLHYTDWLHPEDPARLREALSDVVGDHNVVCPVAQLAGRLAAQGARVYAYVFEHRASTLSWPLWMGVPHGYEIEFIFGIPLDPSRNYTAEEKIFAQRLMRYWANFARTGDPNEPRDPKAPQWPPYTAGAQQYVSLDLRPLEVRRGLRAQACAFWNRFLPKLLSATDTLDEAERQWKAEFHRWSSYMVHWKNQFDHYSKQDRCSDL
Chain of Cholinesterase (Equus caballus, UniProt P81908) (P81908 whole entry): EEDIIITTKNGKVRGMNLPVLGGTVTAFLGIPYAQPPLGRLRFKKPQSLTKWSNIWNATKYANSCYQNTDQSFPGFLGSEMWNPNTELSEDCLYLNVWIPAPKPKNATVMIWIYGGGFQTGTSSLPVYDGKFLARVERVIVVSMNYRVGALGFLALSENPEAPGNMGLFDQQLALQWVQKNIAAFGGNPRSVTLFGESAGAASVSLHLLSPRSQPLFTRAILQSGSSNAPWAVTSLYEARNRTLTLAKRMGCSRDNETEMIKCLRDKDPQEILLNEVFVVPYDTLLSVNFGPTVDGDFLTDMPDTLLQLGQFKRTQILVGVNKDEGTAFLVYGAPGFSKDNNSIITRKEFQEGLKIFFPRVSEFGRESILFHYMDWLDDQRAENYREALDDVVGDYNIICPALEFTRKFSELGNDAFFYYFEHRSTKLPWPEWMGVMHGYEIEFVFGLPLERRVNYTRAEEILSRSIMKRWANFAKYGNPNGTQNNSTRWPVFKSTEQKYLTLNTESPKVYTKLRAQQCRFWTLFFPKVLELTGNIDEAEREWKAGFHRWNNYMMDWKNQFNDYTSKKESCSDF
Chain of Acetylcholinesterase (Electrophorus electricus) (O42275 24-633 limits assumed): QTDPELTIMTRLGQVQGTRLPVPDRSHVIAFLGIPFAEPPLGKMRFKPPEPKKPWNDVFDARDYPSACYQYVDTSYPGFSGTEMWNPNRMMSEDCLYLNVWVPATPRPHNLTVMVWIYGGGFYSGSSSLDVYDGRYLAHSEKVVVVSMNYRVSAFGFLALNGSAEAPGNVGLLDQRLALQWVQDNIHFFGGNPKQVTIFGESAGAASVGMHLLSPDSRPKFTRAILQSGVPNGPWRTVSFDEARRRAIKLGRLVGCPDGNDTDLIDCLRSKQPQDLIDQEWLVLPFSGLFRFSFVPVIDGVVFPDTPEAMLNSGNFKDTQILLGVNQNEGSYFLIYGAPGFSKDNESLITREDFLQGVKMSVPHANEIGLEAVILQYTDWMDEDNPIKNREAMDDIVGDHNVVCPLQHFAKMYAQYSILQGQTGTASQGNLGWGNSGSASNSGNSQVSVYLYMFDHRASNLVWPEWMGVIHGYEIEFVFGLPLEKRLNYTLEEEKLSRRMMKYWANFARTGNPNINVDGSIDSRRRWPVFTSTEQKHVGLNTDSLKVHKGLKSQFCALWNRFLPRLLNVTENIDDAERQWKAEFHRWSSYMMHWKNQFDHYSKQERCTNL

**Q.** Which K [1] does the source give for `COc1ccc(C(C)=O)c(OC(=O)N(C)Cc2ccc(F)cc2)c1` here?
**A.** 2.27 min⁻¹

**Q.** What about the Activity [2] of the same molecule?
**A.** Non-toxic

**Q.** What about the Activity [3] of the same molecule?
**A.** Active

**Q.** What about the Activity [4] of the same molecule?
**A.** 88.6%

**Q.** And the Activity [5]?
**A.** Non-toxic

**Q.** And the Papp at 18 h [6]?
**A.** 16.4 ×10⁻⁶ cm/s

**Q.** And the Activity [7]?
**A.** Non-toxic

**Q.** What about the Activity [8] of the same molecule?
**A.** 43%

**Q.** And the Activity [9]?
**A.** Active

**Q.** What about the Activity [10] of the same molecule?
**A.** Non-toxic

**Q.** What about the inhibition [11] of the same molecule?
**A.** 10.4%

**Q.** And the Ki [12]?
**A.** 2.8 10^-3/uM/min

**Q.** And the Activity [13]?
**A.** Dose-dependent-effect

**Q.** And the Activity [14]?
**A.** Non-toxic

**Q.** What about the Activity [15] of the same molecule?
**A.** Non-toxic

**Q.** What about the IC50 [16] of the same molecule?
**A.** 81 nM

**Q.** And the IC50 [17]?
**A.** 400 nM

**Q.** And the Activity [18]?
**A.** Active

**Q.** And the Activity [19]?
**A.** Dose-dependent-effect

**Q.** What about the Kd [20] of the same molecule?
**A.** 2110 nM

**Q.** And the Activity [21]?
**A.** 8.8%

**Q.** And the IC50 [22]?
**A.** 12 nM

**Q.** And the K [23]?
**A.** 2.83 min⁻¹

**Q.** What about the Activity [24] of the same molecule?
**A.** Dose-dependent-effect

**Q.** What about the Activity [25] of the same molecule?
**A.** Active

**Q.** And the Activity [26]?
**A.** Active

**Q.** And the Activity [27]?
**A.** Dose-dependent-effect

**Q.** What about the inhibition [28] of the same molecule?
**A.** 53%

**Q.** What about the Activity [29] of the same molecule?
**A.** Active

**Q.** With `CN(C(=O)n1cnc(-c2ccc[n+]([O-])c2)c1)C1CCCCC1` as the molecule, how does the IC50 [30] read?
**A.** 7500 nM
